The values below come from article PMC11062922 (Nature Chemical Biology, 2023).

Molecules are shown by their SMILES. Where two headings read alike, the source gives them in different places.

The target of test [1] is T1, ERN1 (Homo sapiens, UniProt O75460).
T1 construct: endogenous in cells
Set-up: method as in chemicalprobes.org. The conditions noted are these: truncated human IRE1 alpha WT (AA 469-977); ref chemicalprobes.org; cited from earlier work.

The subject of test [2] is XBP1 splicing in cells. Details: method as in chemicalprobes.org. The conditions noted are these: ref chemicalprobes.org; read-out: Potency value in cells (IC50); cited from earlier work.
In test [3] the target is CSNK2A2 (Homo sapiens, UniProt P19784). Nature of the test: Kinobeads two-dose competition binding: CSNK2A2. The conditions noted are these: Kinobeads two-dose screen (binding); read-out: Kdapp CSNK2A2. Details: to maximize the representation of endogenous proteins; endogenous in cells. From the text: Briefly, Kinobeads comprise seven broad-spectrum small molecule kinase inhibitors immobilized on Sepharose beads. […]. Compounds of interest are set to compete for target protein binding with Kinobeads in the lysate and the amount of a given protein bound to Kinobeads in the presence of a compound can be quantified relative to a dimethylsulfoxide (DMSO) vehicle control by label-free mass spectrometry. This assay measures the physical interaction of a compound with thousands of endogenous proteins in parallel and, when systematically increasing the concentration of competitor, enables the calculation of an apparent interaction constant ( Kdapp ) for each compound and protein.
Kinobeads pulldown experiments were performed as described previously[13],[14],[17] with minor modification. […] The protein concentration was adjusted to 5 mg ml^−1. Kinase inhibitors were spiked into 0.5 ml of cell lysate at final concentrations of 100 and 1,000 nM (or DMSO, 0.3, 1, 3, 10, 30, 100, 300 and 1,000 nM for full dose experiments). […] Lysates were incubated for 45 min at 4 °C. Subsequently, lysates were incubated with Kinobeads ε (17.5 µl of settled beads) for 30 min at 4 °C. To assess the degree of protein depletion from the lysates by Kinobeads, the flow through of the DMSO control was recovered for a pulldown of pulldown experiment where the lysate was incubated a second time with fresh Kinobeads. Beads were washed in three steps with buffer containing 0.4%, 0.2% and no IGEPAL. Bound proteins were reduced with 50 mM DTT in 8 M Urea, 40 mM Tris-HCl pH 7.4 for 30 min at room temperature. After alkylation with 55 mM chloroacetamide, the urea concentration was reduced to 1–2 M and proteins were digested with trypsin. Acidified peptides were desalted and concentrated using SepPak tC18 µEluation plates (Waters). Samples were frozen, dried by vacuum centrifugation and stored at −20 °C.
Each kinase inhibitor was processed together with all DMSO controls of the same plate. Additionally, each search was supplemented with five high quality DMSO controls for consistent peptide identification and protein grouping. The resultant file (proteinGroups.txt) was used for subsequent filtering, normalization, data visualization and target annotation that was automatically performed by a data processing pipeline built in house that used R (including the ‘drc’ and ‘heatmap’ packages). First, reverse hits, potential contaminants and not quantified proteins in the DMSO control samples were discarded. Protein raw and label-free quantification intensities were normalized to the median DMSO control intensity to obtain relative residual binding intensities for each protein group at every inhibitor concentration and standard deviations of the DMSO control intensity were calculated. IC50 values were estimated based on the following equation IC50=I×100−inhibition/inhibition where [I] is the inhibitor concentration that was used for IC50 calculation and ‘inhibition’ the relative residual binding intensity. […]. Estimated Kdapp values were then calculated by multiplying the estimated IC50 values with a protein-dependent correction factor that was limited to a maximum value of one. The correction factor accounts for the depletion of a target protein from the lysate by Kinobeads. The depletion can be measured by the ratio of the amount of protein captured in two consecutive pulldowns of the same DMSO control lysate. In this study, correction factors were determined in separate experiments using the same lysate mixture and the same bead batch. Correction factors were set to the median of all correction factors. Targets of kinase inhibitors were annotated using the previously published random forest classifier. A training data set was annotated manually. […]

The target of test [4] is T2, CK2alpha2 (CSNK2A2) (Homo sapiens, UniProt P19784).
T2 construct: purchased ProQinase
Nature of the test: Recombinant kinase activity assay (ProQinase, FlashPlate radiometric): CK2alpha2. The format is biochemical. Here is the method: (§1) Kinase activity assays were performed by ProQinase. Dose-dependent activity inhibition of CDK1/cyclinB, CK2alpha1 and CK2alpha2 were measured using a FlashPlateTM-based radiometric assay at KM (ATP) of the respective kinase.

Test [5] deals with T3, CSNK2A1 (CK2) (Homo sapiens, UniProt P68400).
T3 construct: endogenous in cells
Nature of the test: Kinobeads two-dose competition binding: CK2 (CSNK2A1).

The target in test [6] is T4, CK2alpha1 (CSNK2A1) (Homo sapiens, UniProt P68400).
T4 construct: purchased ProQinase
Nature of the test: Recombinant kinase activity assay (ProQinase, FlashPlate radiometric): CK2alpha1. The format is biochemical. To be noted: Enzyme CK2alpha1; Highest Assay Concentration 1.00E-06 M; read-out: IC50. Here is the method:
as §1

In test [7] the target is T5, CDK1/cyclinB (Homo sapiens, UniProt P06493).
T5 construct: purchased ProQinase
Nature of the test: Recombinant kinase activity assay (ProQinase, FlashPlate radiometric): CDK1/cyclinB. The format is biochemical. To be noted: Enzyme CDK1_CycB1; Highest Assay Concentration 1.00E-06 M. As to the method: as §1

The target of test [8] is T6, endogenous kinases and other proteins enriched by Kinobeads from mixed cancer cell lysates (Homo sapiens, UniProt Q9Y616).
T6 construct: endogenous in cells
Nature of the test: Kinobeads pulldown, full dose-response (eight doses).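 Note: competition with Kinobeads ε after inhibitor preincubation in lysate (5 mg/ml protein) for 45 min at 4 °C, DMSO control, doses 0.3–1,000 nM, label-free LC–MS/MS quantification.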 The format is binding. To be noted: target IRAK3; in nM.

The target of test [9] is T7, endogenous kinases and other proteins enriched by Kinobeads from mixed cancer cell lysates (Homo sapiens, UniProt P19784).
T7 construct: endogenous in cells
The description is as above. The format is binding. To be noted: target CSNK2A2; in nM.

Test [10] addresses T8, endogenous kinases and other proteins enriched by Kinobeads from mixed cancer cell lysates (Homo sapiens, UniProt O75822).
T8 construct: to maximize the representation of endogenous proteins; endogenous in cells
Described as above. The conditions noted are these: target EIF3J; in nM. The class given is binding.

Test [11] concerns the target T9, endogenous kinases and other proteins enriched by Kinobeads from mixed cancer cell lysates (Homo sapiens, UniProt P68400).
T9 construct: endogenous in cells
The test is described as above. To be noted: target CSNK2A1;CSNK2A3; in nM. The format is binding.

In test [12] the target is T10, endogenous kinases and other proteins enriched by Kinobeads from mixed cancer cell lysates (Homo sapiens, UniProt P67870).
T10 construct: endogenous in cells
The description is as above. The format is binding. To be noted: target CSNK2B; in nM.

The target of test [13] is T11, endogenous kinases and other proteins enriched by Kinobeads from mixed cancer cell lysates (Homo sapiens, UniProt Q86TW2).
T11 construct: endogenous in cells
Described as above. The class given is binding. The conditions noted are these: target ADCK1; in nM.

The target in test [14] is T12, endogenous kinases and other proteins enriched by Kinobeads from mixed cancer cell lysates (Homo sapiens, UniProt P16083).
T12 construct: endogenous in cells
The test is described as above. The format is binding. To be noted: target NQO2; in nM.

In test [15] the test system is IL-10 secretion in primary bone marrow-derived dendritic cells (BMDCs). Nature of the test: IL-10 cytokine secretion assay (ELISA) in Zymosan-stimulated primary BMDCs. The class given is cell-based, mouse. The conditions noted are these: murine BMDCs, inhibitor 30 min before Zymosan stimulation. Here is the method:
A subsequent full dose–response experiment confirmed potent and selective binding to SYK ( Kdapp = 58 nM, […] = 0.60; Extended Data Fig. 5a,b). […] One of the effects of Zymosan is that it activates Dectin-1 signaling, in turn activating SYK and leading to increased IL-10 cytokine production (Fig. 3c)[34]. Treatment of cells with the respective SYK inhibitors before Zymosan stimulation indeed led to decreased levels of IL-10 in a dose-dependent fashion (Fig. 3d). […] In line with the cytokine readout, we observed a dose depended reduction of pTyr525/526 indicating SYK inhibition in live cells (Fig. 3e and Extended Data Fig. 5c).
Primary BMDCs were obtained from 9-week-old C57BL/6 mice that were maintained under standard specific pathogen-free conditions. BMDCs were differentiated for 7 days in Roswell Park Memorial Institute medium (Gibco) and granulocyte-macrophage colony-stimulating factor. On day seven, BMDCs were seeded in 96-well plates at 10^5 cells per well in 100 µl of culture medium followed by incubation for 4 h at 37 °C. Subsequently, cells were incubated with SYK inhibitors for 30 min followed by stimulation with Zymosan (final concentration of 50 µg ml^−1; Invivogen) and dispersed in culture medium for 24 h. […] For cytokine secretion quantification, cell culture medium was collected and concentrations of IL-10 in the supernatant were determined using mouse enzyme-linked immunosorbent assay kits (IL-10: Invitrogen) according to the manufacturer’s protocol. Experiments were performed in biological triplicates.
(In general: ELISA stands for enzyme-linked immunosorbent assay.)

The target in test [16] is T13, endogenous kinases and other proteins enriched by Kinobeads from mixed lysates of K-562, COLO-205, MV-4-11, SK-N-BE(2) and OVCAR-8 (Homo sapiens, UniProt Q8NI60).
T13 construct: to maximize the representation of endogenous proteins; endogenous in cells
The experiment in a line: Kinobeads competition binding profiling, two doses (100 nM and 1 µM).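 Note: inhibitor preincubated 45 min at 4 °C in cell lysate, then bead pulldown. Bound protein quantified by label-free mass spectrometry relative to DMSO vehicle control.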 To be noted: target ADCK3; read-out: apparent Kd.

Test [17] has as its target T14, endogenous kinases and other proteins enriched by Kinobeads from mixed lysates of K-562, COLO-205, MV-4-11, SK-N-BE(2) and OVCAR-8 (Homo sapiens, UniProt P35916).
T14 construct: endogenous in cells
The test is described as above. To be noted: target FLT4; read-out: apparent Kd.

In test [18] the test system is CSF1R, FLT3, KIT, PDGFRB, PDGFRA. Set-up: method as in chemicalprobes.org. The conditions noted are these: 2nd of 4 values listed for 5 targets; ref chemicalprobes.org; read-out: Potency value in cells (IC50); cited from earlier work.
Test [19] has the same test system. Details: method as in chemicalprobes.org. To be noted: ref chemicalprobes.org, cited from earlier work.
Test [20] concerns LCK. Set-up: method as in chemicalprobes.org. To be noted: @ 1 mM ATP, ref chemicalprobes.org; cited from earlier work.
For test [21], the system named is Concanavalin A-induced cytokine production in Whole Blood. Set-up: method as in chemicalprobes.org. To be noted: ref chemicalprobes.org, read-out: Potency value in cells (EC50); cited from earlier work.

Broadly, the IC50 is the concentration needed to halve the response being measured.

For `Cc1ccc2c(NS(=O)(=O)c3ccccc3Cl)cccc2c1Oc1ncccc1-c1ccnc(N[C@H]2CCCNC2)n1` [AMG-18], in [1], the Potency value was 13 nM. In test [2], the concentration for half-maximal inhibition (IC50) is 99 nM.

In the case of `CONC1=NC(=O)/C(=C/c2ccc3ncccc3c2)S1` [RO4613269-000], the potency estimated from few doses in [3] is 57 nM; in [5] (Kinobeads two-dose screen (binding), read-out: Kdapp CK2 (CSNK2A1)) it was 58 nM. Besides, the concentration for half-maximal inhibition (IC50) in test [4] (Enzyme CK2alpha2, Highest Assay Concentration 1.00E-06 M, read-out: IC50) was 65.3 nM; in test [4] (recombinant kinase activity assay at KM (ATP), read-out: Activity IC50 CSNK2A2), 65 nM; in test [6], 116 nM; in [7], > 1000 nM. Further, the CATDSCK2 in [5] (selectivity score from Kinobeads two-dose data) is recorded as 0.86.

With `c1cn2cc(-c3ccc4cn[nH]c4c3)nc(Nc3ccc(N4CCOCC4)cc3)c2n1` [entospletinib], the EC50 in test [8] is on record as 4708.37; in test [9] it was 1314.91; in test [10] it was 1609.61; in test [11], 1585.19; in test [12] it was 940.697; in test [13] it was 16437.9. The compound also showed an EC50 in test [14] of 295.4. Moreover, the IL-10 levels entry in test [15] was “dose-dependent reduction”.

For the compound `CNC(=O)c1cncc(/C=C/c2ccccc2Cl)c1` [GW445017X], the potency estimated from few doses in test [16] is 747 nM.

Turning to `CCS(=O)(=O)c1ccc(OC)c(Nc2ncc(-c3cccc(-c4ccccc4F)c3)o2)c1` [GW678313X], the potency estimated from few doses in [17] is 423 nM.

With `CCN1C(C)(C)CC(Oc2ccc(C(=O)Nc3ccc(NC(=O)Nc4cc(C(C)(C)C)on4)cc3)nc2)CC1(C)C` [AC710], in [18], the IC50 is 2 nM. Moreover, the Potency value in [19] (1st of 4 values listed for 5 targets) is 0.5 nM; in [19] (2nd of 4 values listed for 5 targets), 0.6 nM; in test [19] (3rd of 4 values listed for 5 targets), 1 nM; in [19] (4th of 4 values listed for 5 targets), 1.3 nM.

As to `COc1cc(-c2nn([C@H]3CC[C@H](N4CCN(C(C)=O)CC4)CC3)c3ncnc(N)c23)ccc1NC(=O)c1cc2ccccc2n1C` [Compound A-770041], in [20], the Potency value was 147 nM @ 1 mM ATP. The EC50 in test [21] was 80 nM.
